Our source for the A2 peptide and A2 native values is patent US20040037843A1, “Inducing cellular immune responses to prostate cancer antigens using peptide and nucleic acid compositions” (priority 2003, published 2004).

For this assay, the system named is .221A2.1 peptide-loaded target cells and cells expressing endogenous antigen. The experiment in a line: Primary in vitro CTL induction with peptide-pulsed DC, CTL lytic activity by 51Cr release. As to conditions: immunogenicity, positive/tested; for A2 peptide: CTL recognition of the peptide; for A2 native: CTL recognition of native (wild-type) target. Format: cell-based, human. The protocol:
Testing was performed using the following methodology:
Cells that express an antigen of interest, or transfectants comprising the gene encoding the antigen of interest, can be used as target cells to test the ability of peptide-specific CTLs to recognize endogenous antigen.
The monocytes are purified by plating 10×10^6 PBMC/well in a 6-well plate. After 2 hours at 37° C., the non-adherent cells are removed by gently shaking the plates and aspirating the supernatants. The wells are washed a total of three times with 3 ml RPMI to remove most of the non-adherent and loosely adherent cells. Three ml of complete medium containing 50 ng/ml of GM-CSF and 1,000 U/ml of IL-4 are then added to each well. TNFα is added to the DCs on day 6 at 75 ng/ml and the cells are used for CTL induction cultures on day 7.
Induction of CTL with DC and Peptide: CD8+ T-cells are isolated by positive selection with Dynal imnmunomagnetic beads (Dynabeads® M-450) and the detacha-bead® reagent. Typically about 200-250×10^6 PBMC are processed to obtain 24×10^6 CD8^+T-cells (enough for a 48-well plate culture). Briefly, the PBMCs are thawed in RPMI with 30 μg/ml DNAse, washed once with PBS containing 1% human AB serum and resuspended in PBS/1% AB serum at a concentration of 20×10^6 cells/ml. The magnetic beads are washed 3 times with PBS/AB serum, added to the cells (140 μl beads/20×10^6 cells) and incubated for 1 hour at 4° C. with continuous mixing. The beads and cells are washed 4× with PBS/AB serum to remove the nonadherent cells and resuspended at 100×10^6 cells/ml (based on the original cell number) in PBS/AB serum containing 100 μl/ml detacha-bead® reagent and 30 μg/ml DNAse. The mixture is incubated for 1 hour at room temperature with continuous mixing. The beads are washed again with PBS/AB/DNAse to collect the CD8+ T-cells. The DC are collected and centrifuged at 1300 rpm for 5-7 minutes, washed once with PBS with 1% BSA, counted and pulsed with 40 μg/ml of peptide at a cell concentration of 1-2×10^6/ml in the presence of 3 μg/ml β2-microglobulin for 4 hours at 20° C. The DC are then irradiated (4,200 rads), washed 1 time with medium and counted again.
Setting up induction cultures: 0.25 ml cytokine-generated DC (@1×10^5 cells/ml) are co-cultured with 0.25 ml of CD8+ T-cells (@2×10^6 cell/ml) in each well of a 48-well plate in the presence of 10 ng/ml of IL-7. Recombinant human IL10 is added the next day at a final concentration of 10 ng/ml and rhuman IL2 is added 48 hours later at 10 IU/mL.
Restimulation of the induction cultures with peptide-pulsed adherent cells: Seven and fourteen days after the primary induction the cells are restimulated with peptide-pulsed adherent cells. The PBMCS are thawed and washed twice with RPMI and DNAse. The cells are resuspended at 5×10^6 cells/ml and irradiated at ˜4200 rads. The PBMCs are plated at 2×10^6 in 0.5 ml complete medium per well and incubated for 2 hours at 37° C. The plates are washed twice with RPMI by tapping the plate gently to remove the nonadherent cells and the adherent cells pulsed with 10 μg/ml of peptide in the presence of 3 μg/ml β2 microglobulin in 0.25 ml RPMI/5% AB per well for 2 hours at 37° C. Peptide solution from each well is aspirated and the wells are washed once with RPMI. Most of the media is aspirated from the induction cultures (CD8+ cells) and brought to 0.5 ml with fresh media. The cells are then transferred to the wells containing the peptide-pulsed adherent cells. Twenty four hours later rhuman IL10 is added at a final concentration of 10 ng/ml and rhuman IL2 is added the next day and again 2-3 days later at 50 IU/ml (Tsai et al., Critical Reviews in Immunology 18(1-2):65-75, 1998). Seven days later the cultures are assayed for CTL activity in a ^51Cr release assay. In some experiments the cultures are assayed for peptide-specific recognition in the in situ IFNγ ELISA at the time of the second restimulation followed by assay of endogenous recognition 7 days later. […]

Consider `CC(C)C[C@H](NC(=O)[C@H](Cc1c[nH]c2ccccc12)NC(=O)[C@H](Cc1ccccc1)NC(=O)[C@H](Cc1ccccc1)NC(=O)[C@H](CC(C)C)NC(=O)[C@@H](N)CC(C)C)C(=O)N[C@@H](CC(=O)O)C(=O)N[C@@H](CCCNC(=N)N)C(=O)N[C@@H](CO)C(=O)N[C@H](C(=O)O)C(C)C` [Peptide 1097.09], for which the A2 peptide is on record as 3/3. In the case of `CC(C)C[C@H](NC(=O)[C@H](Cc1ccccc1)NC(=O)[C@H](Cc1ccccc1)NC(=O)CNC(=O)CNC(=O)[C@H](C)NC(=O)[C@H](CC(C)C)NC(=O)[C@@H](N)C(C)C)C(=O)N[C@H](C(=O)O)C(C)C` [Peptide 1389.20], the A2 native was 1/2 and the A2 peptide is recorded as 1/2. On to `CC(C)C[C@H](NC(=O)[C@@H]1CCCN1)C(=O)N[C@H](C(=O)N[C@@H](CS)C(=O)N[C@@H](CC(N)=O)C(=O)NCC(=O)N[C@H](C(=O)N[C@@H](CC(C)C)C(=O)N[C@@H](CCC(N)=O)C(=O)NCC(=O)N[C@H](C(=O)O)C(C)C)C(C)C)C(C)C` [Peptide 1419.17], for which the A2 native is on record as 2/2 and the A2 peptide is 2/2. In the case of `CC(C)C[C@H](NC(=O)[C@H](CC(=O)O)NC(=O)[C@@H](NC(=O)[C@H](CS)NC(=O)[C@H](CCC(N)=O)NC(=O)[C@H](CC(C)C)NC(=O)[C@@H](N)CCCCN)C(C)C)C(=O)N[C@@H](Cc1c[nH]cn1)C(=O)N[C@H](C(=O)O)C(C)C` [Peptide 990.01], the A2 peptide is recorded as 1/2. Take `CSCC[C@H](NC(=O)[C@H](CC(C)C)NC(=O)[C@H](CCC(N)=O)NC(=O)[C@H](CC(=O)O)NC(=O)[C@H](CC(N)=O)NC(=O)[C@H](CCSC)NC(=O)[C@@H](N)CCSC)C(=O)N[C@@H](Cc1ccccc1)C(=O)N[C@@H](CC(C)C)C(=O)O` [Peptide 1126.01]: the A2 peptide is on record as 2/2. For `CC[C@H](C)[C@H](NC(=O)[C@H](CO)NC(=O)[C@@H]1CCCN1C(=O)[C@H](CC(C)C)NC(=O)CN)C(=O)N1CCC[C@H]1C(=O)N[C@H](C(=O)N[C@@H](Cc1c[nH]cn1)C(=O)N1CCC[C@H]1C(=O)N[C@H](C(=O)O)C(C)C)C(C)C` [Peptide 1389.24], the A2 native is 3/4 and the A2 peptide is given as 4/4.

On to `CC[C@H](C)[C@H](NC(=O)[C@@H]1CCCN1C(=O)[C@H](Cc1c[nH]cn1)NC(=O)[C@@H](NC(=O)[C@@H]1CCCN1C(=O)[C@@H](NC(=O)[C@H](CO)NC(=O)[C@@H]1CCCN1C(=O)[C@H](CC(C)C)NC(=O)CN)[C@@H](C)CC)C(C)C)C(=O)O` [Peptide 1129.10], for which the A2 peptide is recorded as 2/4. The same measure, in the same setting: in the case of `CC(C)C[C@H](NC(=O)[C@H](CCC(=O)O)NC(=O)[C@H](CCCCN)NC(=O)[C@H](C)NC(=O)[C@H](CC(C)C)NC(=O)[C@@H](N)C(C)C)C(=O)N[C@@H](CCCCN)C(=O)N[C@@H](Cc1ccccc1)C(=O)N[C@H](C(=O)O)C(C)C` [Peptide 1097.17] it was 1/3. Consider `CC(C)C[C@H](NC(=O)[C@H](C)N)C(=O)NCC(=O)N[C@H](C(=O)N[C@H](C(=O)N[C@@H](CS)C(=O)N[C@@H](Cc1ccc(O)cc1)C(=O)N[C@H](C(=O)O)C(C)C)[C@@H](C)O)[C@@H](C)O` [Peptide 1389.14], for which the A2 native is reported as 1/3 and the A2 peptide is on record as 2/3. For `CC[C@H](C)[C@H](N)C(=O)N[C@H](C(=O)N[C@@H](CC(C)C)C(=O)N[C@@H](Cc1c[nH]c2ccccc12)C(=O)N[C@@H](CCC(N)=O)C(=O)N1CCC[C@H]1C(=O)N[C@H](C(=O)N1CCC[C@H]1C(=O)N[C@H](C(=O)O)C(C)C)[C@@H](C)CC)[C@@H](C)O` [Peptide 1418.25], in that order: 2/3 and 3/3.

For `CC[C@H](C)[C@H](NC(=O)[C@H](CC(=O)O)NC(=O)[C@H](Cc1ccccc1)NC(=O)[C@H](CC(C)C)NC(=O)[C@H](C)N)C(=O)N[C@@H](CCC(=O)O)C(=O)N[C@@H](CO)C(=O)N[C@@H](CCCCN)C(=O)N[C@H](C(=O)O)C(C)C` [Peptide 1129.08], the A2 peptide is recorded as 2/2.
